The assay deals with T1, human PD-1 (Jurkat-PD-1 cells) / PE-labeled human PD-L1-Ig (Homo sapiens, UniProt Q15116).
T1 construct: expressed in transfected cells; host or cells: Jurkat cell line over-expressing human PD-1
In words: Jurkat-PD-1 Cell Binding High-Content Screening Assay (CBA); Jurkat hPD1-PDL1 assay. The note with it: Jurkat cell line over-expressing human PD-1; PE-labeled PD-L1-Ig 20 nM final; compound incubated 2 hours at 37° C.; read-out: Jurkat HPD1-PDL1 IC50. In a few lines:
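Compound was added to Jurkat-PD-1 cells in DMEM plus 10% fetal calf serum and incubated 2 hours at 37° C. Binding of phycoerythrin-conjugated PD-L1-Ig (20 nM final) to the cells was imaged.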

Positions of bridges follow the written chain, without caps; N, C: chain ends. Non-standard residues stand in square brackets, D forms with d. Residues, ends and D or L forms follow the SMILES beside them. ξ: configuration not given here. *: point of attachment. Bip = N[C@@H](Cc1ccc(-c2ccccc2)cc1)C(=O)O; dPro(4S-NH2) = N[C@@H]1CN[C@@H](C(=O)O)C1; Ala(cPent) = N[C@@H](CC1CCCC1)C(=O)O; Ala(cPr) = N[C@@H](CC1CC1)C(=O)O; NMeF = CN[C@@H](Cc1ccccc1)C(=O)O; Cha = N[C@@H](CC1CCCCC1)C(=O)O; ξR = N=C(N)NCCCC(N)C(=O)O; Carboxymethyl = O=C(O)C*; NMeA = CN[C@@H](C)C(=O)O; Orn = NCCC[C@H](N)C(=O)O; Dab = NCC[C@H](N)C(=O)O; Ac3c = NC1(C(=O)O)CC1; ξV = CC(C)C(N)C(=O)O; Sar = CNCC(=O)O

T1 sequence (Q15116 25-288): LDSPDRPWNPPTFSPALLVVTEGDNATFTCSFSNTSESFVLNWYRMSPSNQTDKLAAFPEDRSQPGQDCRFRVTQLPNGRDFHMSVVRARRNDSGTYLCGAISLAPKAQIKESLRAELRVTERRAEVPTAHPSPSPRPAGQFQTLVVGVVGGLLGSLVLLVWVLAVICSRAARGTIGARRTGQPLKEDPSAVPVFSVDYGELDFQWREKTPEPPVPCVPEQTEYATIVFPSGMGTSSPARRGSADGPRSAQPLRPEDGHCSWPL

`CC(C)C[C@@H]1NC(=O)CSC[C@@H](C(=O)N[C@@H](C)C(N)=O)NC(=O)[C@H](CO)NC(=O)[C@H](C(C)C)NC(=O)[C@H](CC(C)C)NC(=O)[C@H](CCCNC(=N)N)NC(=O)[C@H](Cc2ccccc2)N(C)C(=O)[C@H](C)N(C)C(=O)[C@H](CCCNC(=N)N)NC(=O)[C@H](Cc2ccc(-c3ccccc3)cc2)NC(=O)[C@H](C(C)C)NC(=O)[C@H](Cc2c[nH]c3ccccc23)NC(=O)[C@H](CC(=O)O)NC(=O)[C@H](Cc2ccc(O)cc2)NC1=O` [Example 1308] ({CH2CO}-LYDWV[Bip]R[NMeA][NMeF]RLVSCA-NH2; thioether N-14): the IC50 was 410 nM.

As for `CC(C)C[C@@H]1NC(=O)[C@H](CCN)NC(=O)[C@H](Cc2ccccc2)N(C)C(=O)[C@H](C)N(C)C(=O)[C@H](CCCNC(=N)N)NC(=O)[C@H](Cc2ccc(-c3ccccc3)cc2)NC(=O)[C@H](C(C)C)NC(=O)[C@H](Cc2c[nH]c3ccccc23)NC(=O)[C@H](CC(=O)O)NC(=O)[C@H](Cc2ccc(O)cc2)NC(=O)[C@H](CCC(N)=O)NC(=O)CSC[C@@H](C(=O)N[C@@H](C)C(N)=O)NC(=O)[C@H]([C@@H](C)O)NC(=O)[C@H](C(C)C)NC1=O` [Example 1326] ({CH2CO}-QYDWV[Bip]R[NMeA][NMeF][Dab]LVTCA-NH2; thioether N-14), the IC50 was 150 nM.

Consider `CC(C)C[C@@H]1NC(=O)[C@H](CCCNC(=N)N)NC(=O)[C@H](Cc2ccccc2)N(C)C(=O)[C@H](C)N(C)C(=O)[C@H](CCCN)NC(=O)[C@H](Cc2ccc(-c3ccccc3)cc2)NC(=O)[C@H](C(C)C)NC(=O)[C@H](Cc2c[nH]c3ccccc23)NC(=O)[C@H](CC(=O)O)NC(=O)[C@H](Cc2ccc(O)cc2)NC(=O)[C@H](Cc2ccccc2)NC(=O)CSC[C@@H](C(=O)NCC(N)=O)NC(=O)[C@H](CO)NC(=O)[C@H](C(C)C)NC1=O` [Example 1243] ({CH2CO}-FYDWV[Bip][Orn][NMeA][NMeF]RLVSCG-NH2; thioether N-14), for which the IC50 amounted to 60 nM.

In the case of `CC(C)C1NC(=O)[C@H](Cc2c[nH]c3ccccc23)NC(=O)[C@H](CC(=O)O)NC(=O)[C@H](Cc2ccc(O)cc2)NC(=O)[C@H](CC(N)=O)NC(=O)CSC[C@@H](C(=O)N[C@@H](C)C(N)=O)NC(=O)[C@H]([C@@H](C)O)NC(=O)[C@H](C(C)C)NC(=O)[C@H](CC2CCCCC2)NC(=O)[C@H](CCN)NC(=O)[C@H](Cc2ccccc2)N(C)C(=O)[C@H](CCCN)NC(=O)[C@H](CCC(=O)O)NC(=O)[C@H](Cc2ccc(-c3ccccc3)cc2)NC1=O` (stereo partly drawn) [Example 1441] ({CH2CO}-NYDW[ξV][Bip]E[Orn][NMeF][Dab][Cha]VTCA-NH2; thioether N-14), the concentration for half-maximal inhibition (IC50) came to 60 nM.

Regarding `CC(C)C[C@@H]1NC(=O)[C@H](CC(N)=O)NC(=O)CN(C)C(=O)[C@H](C)N(C)C(=O)[C@H](C(C)C)NC(=O)[C@H](Cc2ccc(-c3ccccc3)cc2)NC(=O)[C@H](CC2CCCC2)NC(=O)[C@H](Cc2c[nH]c3ccccc23)NC(=O)[C@H](CC(=O)O)NC(=O)[C@H](Cc2ccc(O)cc2)NC(=O)[C@H](Cc2ccccc2)NC(=O)CSC[C@@H](C(=O)N[C@@H](C)C(N)=O)NC(=O)[C@H](CO)NC(=O)[C@H](C(C)C)NC1=O` [Example 1147] ({CH2CO}-FYDW[Ala(cPent)][Bip]V[NMeA][Sar]NLVSCA-NH2; thioether N-14), the half-maximal inhibitory concentration (IC50) is 660 nM.

`CC(C)C[C@@H]1NC(=O)C(CCCNC(=N)N)NC(=O)[C@H](Cc2ccccc2)N(C)C(=O)[C@H](C)N(C)C(=O)[C@H](CCCNC(=N)N)NC(=O)[C@H](Cc2ccc(-c3ccccc3)cc2)NC(=O)[C@H](C(C)C)NC(=O)[C@H](Cc2c[nH]c3ccccc23)NC(=O)[C@H](CC(=O)O)NC(=O)[C@H](Cc2ccc(O)cc2)NC(=O)[C@H](Cc2ccccc2)NC(=O)CSC[C@@H](C(=O)NCC(N)=O)NC(=O)[C@H](CCCNC(=N)N)NC(=O)[C@H](C(C)C)NC1=O` (stereo partly drawn) [Example 1220] ({CH2CO}-FYDWV[Bip]R[NMeA][NMeF][ξR]LVRCG-NH2; thioether N-14): the IC50 is 720 nM.

Take `CC(C)C[C@@H]1NC(=O)[C@H](Cc2c[nH]c3ccccc23)NC(=O)[C@H](CC(=O)O)NC(=O)[C@H](Cc2ccc(O)cc2)NC(=O)[C@H](Cc2ccccc2)NC(=O)CSC[C@@H](C(=O)NC2(C(N)=O)CC2)NC(=O)[C@H](CO)NC(=O)[C@H](C(C)C)NC(=O)[C@H](CC(C)C)NC(=O)[C@H](CC(N)=O)NC(=O)CN(C)C(=O)[C@H](C)N(C)C(=O)[C@H](C(C)C)NC(=O)[C@H](Cc2ccc(-c3ccccc3)cc2)NC1=O` [Example 1056] ({CH2CO}-FYDWL[Bip]V[NMeA][Sar]NLVSC[Ac3c]-NH2; thioether N-14): the IC50 was 130 nM.

As to `CC(C)C[C@@H]1NC(=O)[C@H](Cc2c[nH]c3ccccc23)NC(=O)[C@H](CC(=O)O)NC(=O)[C@H](Cc2ccc(O)cc2)NC(=O)[C@H](Cc2ccccc2)NC(=O)CSC[C@@H](C(=O)N[C@@H](C)C(N)=O)NC(=O)[C@H](CO)NC(=O)[C@H](C(C)C)NC(=O)[C@H](CC(C)C)NC(=O)[C@H](CC(N)=O)NC(=O)[C@H]2C[C@H](N)CN2C(=O)[C@H]2CCCN2C(=O)[C@H](C(C)C)NC(=O)[C@H](Cc2ccc(-c3ccccc3)cc2)NC1=O` [Example 1175] ({CH2CO}-FYDWL[Bip]V[dP][dPro(4S-NH2)]NLVSCA-NH2; thioether N-14), the half-inhibitory concentration (IC50) amounted to 500 nM.

On to `CC(C)C[C@@H]1NC(=O)[C@H](CC(N)=O)NC(=O)CN(C)C(=O)[C@H](C)N(C)C(=O)[C@H](C(C)C)NC(=O)[C@H](Cc2ccc(-c3ccccc3)cc2)NC(=O)[C@H](CC2CC2)NC(=O)[C@H](Cc2c[nH]c3ccccc23)NC(=O)[C@H](CC(=O)O)NC(=O)[C@H](Cc2ccc(O)cc2)NC(=O)[C@H](Cc2ccccc2)NC(=O)CSC[C@@H](C(=O)N[C@@H](C)C(N)=O)NC(=O)[C@H](CO)NC(=O)[C@H](C(C)C)NC1=O` [Example 1155] ({CH2CO}-FYDW[Ala(cPr)][Bip]V[NMeA][Sar]NLVSCA-NH2; thioether N-14), for which the 50% inhibitory concentration (IC50) came out at 810 nM.

With `CC(C)C[C@@H]1NC(=O)[C@H](Cc2c[nH]c3ccccc23)NC(=O)[C@H](CC(=O)O)NC(=O)[C@H](Cc2ccc(OCC(=O)O)cc2)NC(=O)[C@H](Cc2ccccc2)NC(=O)CSC[C@@H](C(=O)N[C@@H](C)C(N)=O)NC(=O)[C@H](CO)NC(=O)[C@H](C(C)C)NC(=O)[C@H](CC(C)C)NC(=O)[C@H](CC(N)=O)NC(=O)[C@H]2CCCN2C(=O)[C@H](C)N(C)C(=O)[C@H](C(C)C)NC(=O)[C@H](Cc2ccc(-c3ccccc3)cc2)NC1=O` [Example 1029] ({CH2CO}-FY(Carboxymethyl)DWL[Bip]V[NMeA][dP]NLVSCA-NH2; thioether N-14), the IC50 was 50 nM.

In the case of `CC(C)C[C@@H]1NC(=O)[C@H](Cc2c[nH]c3ccccc23)NC(=O)[C@H](CC(=O)O)NC(=O)[C@H](Cc2ccc(O)cc2)NC(=O)[C@H](Cc2ccccc2)NC(=O)CSC[C@@H](C(=O)N[C@@H](C)C(N)=O)NC(=O)[C@H](Cc2cnc[nH]2)NC(=O)[C@H](C(C)C)NC(=O)[C@H](CC(C)C)NC(=O)[C@H](CC(N)=O)NC(=O)CN(C)C(=O)[C@H](C)N(C)C(=O)[C@H](C(C)C)NC(=O)[C@H](Cc2ccc(-c3ccccc3)cc2)NC1=O` [Example 1127] ({CH2CO}-FYDWL[Bip]V[NMeA][Sar]NLVHCA-NH2; thioether N-14), the IC50 turned out to be 480 nM.

In the case of `CC(C)C[C@@H]1NC(=O)[C@H](CCCNC(=N)N)NC(=O)[C@H]2CCCN2C(=O)[C@H](C)N(C)C(=O)[C@H](CCCNC(=N)N)NC(=O)[C@H](Cc2ccc(-c3ccccc3)cc2)NC(=O)[C@H](C(C)C)NC(=O)[C@H](Cc2c[nH]c3ccccc23)NC(=O)[C@H](CC(=O)O)NC(=O)[C@H](Cc2ccc(O)cc2)NC(=O)[C@H](Cc2ccccc2)NC(=O)CSC[C@@H](C(=O)N[C@@H](C)C(N)=O)NC(=O)[C@H](CO)NC(=O)[C@H](C(C)C)NC1=O` [Example 1122] ({CH2CO}-FYDWV[Bip]R[NMeA][dP]RLVSCA-NH2; thioether N-14), the IC50 stood at 430 nM.

In the case of `CC(C)C[C@@H]1NC(=O)[C@H](CCCNC(=N)N)NC(=O)[C@H](Cc2ccccc2)N(C)C(=O)[C@H](C)N(C)C(=O)[C@H](CCCNC(=N)N)NC(=O)[C@H](Cc2ccc(-c3ccccc3)cc2)NC(=O)[C@H](C(C)C)NC(=O)[C@H](Cc2c[nH]c3ccccc23)NC(=O)[C@H](CC(=O)O)NC(=O)[C@H](Cc2ccc(O)cc2)NC(=O)[C@H](Cc2ccccc2)NC(=O)CSC[C@@H](C(=O)NCC(N)=O)NC(=O)[C@H](CO)NC(=O)[C@H](C(C)C)NC1=O` [Example 1000] ({CH2CO}-FYDWV[Bip]R[NMeA][NMeF]RLVSCG-NH2; thioether N-14), the IC50 came to 260 nM.

For `CC(C)C[C@@H]1NC(=O)[C@H](CCCNC(=N)N)NC(=O)[C@H](Cc2ccccc2)N(C)C(=O)[C@H](C)N(C)C(=O)[C@H](CCCNC(=N)N)NC(=O)[C@H](Cc2ccc(-c3ccccc3)cc2)NC(=O)[C@H](C(C)C)NC(=O)[C@H](Cc2c[nH]c3ccccc23)NC(=O)[C@H](CC(=O)O)NC(=O)[C@H](Cc2ccc(O)cc2)NC(=O)[C@H](Cc2ccc(O)cc2)NC(=O)CSC[C@@H](C(=O)NCC(N)=O)NC(=O)[C@H](CO)NC(=O)[C@H](C(C)C)NC1=O` [Example 1068] ({CH2CO}-YYDWV[Bip]R[NMeA][NMeF]RLVSCG-NH2; thioether N-14), the IC50 turned out to be 170 nM.

`CC(C)C[C@@H]1NC(=O)[C@H](Cc2c[nH]c3ccccc23)NC(=O)[C@H](CC(=O)O)NC(=O)[C@H](Cc2ccc(O)cc2)NC(=O)[C@H](Cc2ccccc2)NC(=O)CSC[C@@H](C(=O)N[C@@H](C)C(N)=O)NC(=O)[C@H](CO)NC(=O)[C@H](C(C)C)NC(=O)[C@H](CC(C)C)NC(=O)[C@H](CC(N)=O)NC(=O)[C@H]2CCCN2C(=O)[C@H](C)N(C)C(=O)[C@H](C(C)C)NC(=O)[C@H](Cc2ccc(-c3ccccc3)cc2)NC1=O` [Example 1034] ({CH2CO}-FYDWL[Bip]V[NMeA][dP]NLVSCA-NH2; thioether N-14): the IC50 was determined as 60 nM.
